Tests used:
CRAF = target: T1, CRAF (Homo sapiens, UniProt P04049); assay: CRAF kinase activity assay (ADP-Glo); assay type: biochemical; details: Table 3; 10 μM ATP, kinase-dead MEK1 substrate
T1 construct: fused on or other part: GST tag (N-terminal according to the vendor's product)
How it was run: (§1)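 GST-tagged kinase (0.375 nM) with 75 nM kinase-dead MEK1 and 10 μM ATP in HEPES pH 7.5 buffer, 2 h at 30° C, nine concentrations 100–0.01 nM, 0.05% DMSO. ADP-Glo luminescence; % inhibition vs DMSO and substrate-only blanks, IC50 by four-parameter fit.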

BRAF = target: T2, BRAF (Homo sapiens, UniProt P15056); assay: BRAF kinase activity assay (ADP-Glo); assay type: biochemical; details: Table 3; 10 μM ATP, kinase-dead MEK1 substrate
T2 construct: GST; purchased Millipore Sigma B4062-10UG
T2 sequence (P15056 whole entry): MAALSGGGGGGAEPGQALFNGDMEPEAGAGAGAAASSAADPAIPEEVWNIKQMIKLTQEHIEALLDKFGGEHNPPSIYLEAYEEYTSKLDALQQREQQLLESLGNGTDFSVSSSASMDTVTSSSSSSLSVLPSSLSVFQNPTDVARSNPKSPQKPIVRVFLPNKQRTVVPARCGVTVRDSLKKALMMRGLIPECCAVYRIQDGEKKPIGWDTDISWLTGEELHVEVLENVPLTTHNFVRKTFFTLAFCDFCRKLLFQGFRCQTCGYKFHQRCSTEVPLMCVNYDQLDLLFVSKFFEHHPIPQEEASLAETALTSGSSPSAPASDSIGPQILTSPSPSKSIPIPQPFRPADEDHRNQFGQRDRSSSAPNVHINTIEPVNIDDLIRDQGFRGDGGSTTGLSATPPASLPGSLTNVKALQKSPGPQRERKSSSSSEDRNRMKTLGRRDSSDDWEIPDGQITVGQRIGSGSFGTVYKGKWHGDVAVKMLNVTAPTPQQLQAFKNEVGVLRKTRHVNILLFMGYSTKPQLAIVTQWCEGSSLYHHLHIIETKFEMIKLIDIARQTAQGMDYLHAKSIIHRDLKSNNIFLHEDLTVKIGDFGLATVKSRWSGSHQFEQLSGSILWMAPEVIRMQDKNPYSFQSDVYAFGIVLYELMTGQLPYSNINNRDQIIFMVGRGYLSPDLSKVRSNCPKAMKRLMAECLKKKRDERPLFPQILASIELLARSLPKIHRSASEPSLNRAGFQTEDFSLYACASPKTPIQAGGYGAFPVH
How it was run: as §1

pERK, HCT116 cells = assay: Phospho-ERK inhibition, AlphaLISA p-ERK 1/2, HCT-116; assay type: cell-based, human; details: Table 3; for IC50: HCT116 cells (KRAS G13D), 1 h treatment; for HCT116 pERK (Ymin %): lowest % inhibition value of the pERK IC50 curve, above −20% = no paradoxical induction
How it was run: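 Cells in RPMI-1640 with 5% FBS plated overnight, then treated 1 h with ten-point dilutions (10 μM to 0.33 nM, 0.5% DMSO). Lysate p-ERK1/2 (Thr202/Tyr204) read by AlphaLISA SureFire Ultra; % inhibition normalised to DMSO and 1 μM trametinib background, IC50 by four-parameter fit.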

T1 sequence (P04049 whole entry Y340E/Y341E, form open, the tested form may be a part): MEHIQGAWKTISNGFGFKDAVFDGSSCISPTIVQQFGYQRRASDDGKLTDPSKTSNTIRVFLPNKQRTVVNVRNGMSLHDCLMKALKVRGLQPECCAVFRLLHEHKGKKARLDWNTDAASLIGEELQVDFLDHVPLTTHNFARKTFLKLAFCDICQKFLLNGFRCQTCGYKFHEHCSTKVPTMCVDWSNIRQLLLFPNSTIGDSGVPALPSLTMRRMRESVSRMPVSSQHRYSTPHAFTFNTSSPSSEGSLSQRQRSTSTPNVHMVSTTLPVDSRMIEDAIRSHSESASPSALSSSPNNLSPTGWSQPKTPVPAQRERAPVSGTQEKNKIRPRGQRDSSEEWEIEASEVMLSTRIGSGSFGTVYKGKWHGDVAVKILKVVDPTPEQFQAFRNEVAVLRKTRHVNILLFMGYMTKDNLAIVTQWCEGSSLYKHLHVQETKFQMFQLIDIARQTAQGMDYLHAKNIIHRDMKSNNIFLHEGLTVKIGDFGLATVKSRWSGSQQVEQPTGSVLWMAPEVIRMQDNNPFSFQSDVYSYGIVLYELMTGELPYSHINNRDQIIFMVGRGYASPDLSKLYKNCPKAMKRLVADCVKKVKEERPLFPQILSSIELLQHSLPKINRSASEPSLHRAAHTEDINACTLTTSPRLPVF

SMILES	IC50 (CRAF)	IC50 (BRAF)	IC50 (pERK, HCT116 cells)	HCT116 pERK (Ymin %) (pERK, HCT116 cells)	IC50 (pERK, HCT116 cells; Homo sapiens, HCT-116)
Cc1c(Cl)cccc1S(=O)(=O)Nc1ccc(F)c(Nc2ncnc3sc(-n4cnc5c(N)cccc54)nc23)c1F [Example 5]	< 10 nM	1 to 10 nM	< 500 nM	−6%	–
O=S(=O)(Nc1ccc(F)c(Nc2ncnc3sc(-n4ccc5ncccc54)nc23)c1F)c1cccc(Cl)c1Cl [Example 115]	< 10 nM	1 to 10 nM	< 500 nM	−11%	–
O=C(c1cn(-c2nc3c(Nc4c(F)ccc(NS(=O)(=O)c5cccc(Cl)c5Cl)c4F)ncnc3s2)c2ccccc12)N1CC(O)(C(F)(F)F)C1 [Example 96]	10 to 50 nM	> 10 nM	500 to 1000 nM	−1%	–
CS(=O)(=O)N1CCN(c2cccc3c2ncn3-c2nc3c(Nc4c(F)ccc(NS(=O)(=O)c5cccc(Cl)c5Cl)c4F)ncnc3s2)CC1 [Example 155]	10 to 50 nM	1 to 10 nM	< 500 nM	−12%	–
Cc1c(F)cccc1S(=O)(=O)Nc1ccc(F)c(Nc2ncnc3sc(-n4nc(C(=O)N(C)CCN(C)C)c5ccccc54)nc23)c1F [Example 39]	< 10 nM	< 1 nM	< 500 nM	−12%	–
CN1CCN(S(=O)(=O)c2cn(-c3nc4c(Nc5c(F)ccc(NS(=O)(=O)c6cccc(Cl)c6Cl)c5F)ncnc4s3)c3ccccc23)CC1 [Example 12]	10 to 50 nM	1 to 10 nM	–	–	1000 to 10000 nM
O=C(c1cn(-c2nc3c(Nc4c(F)ccc(NS(=O)(=O)c5cccc(Cl)c5Cl)c4F)ncnc3s2)c2ccccc12)N1CC(C(F)F)C1 [Example 57]	10 to 50 nM	1 to 10 nM	< 500 nM	4%	–
CC1(N)CCN(c2cccc3c2ncn3-c2nc3c(Nc4c(F)ccc(NS(=O)(=O)c5cccc(Cl)c5Cl)c4F)ncnc3s2)CC1 [Example 157]	< 10 nM	< 1 nM	< 500 nM	−14%	–
CC(C)(C#N)c1cccc2c1ncn2-c1nc2c(Nc3c(F)ccc(NS(=O)(=O)c4cccc(Cl)c4Cl)c3F)ncnc2s1 [Example 104]	10 to 50 nM	1 to 10 nM	< 500 nM	−10%	–
O=S(=O)(Nc1ccc(F)c(Nc2ncnc3sc(-n4cnc5c(CCO)cccc54)nc23)c1F)c1cccc(Cl)c1Cl [Example 126]	< 10 nM	< 1 nM	< 500 nM	−9%	–
Cc1c(Cl)cccc1S(=O)(=O)Nc1ccc(F)c(Nc2ncnc3sc(-n4cnc5c(-c6cccnc6)cccc54)nc23)c1F [Example 10]	10 to 50 nM	1 to 10 nM	1000 to 10000 nM	−2%	–
CC1(O)CCN(c2cccc3c2ncn3-c2nc3c(Nc4c(F)ccc(NS(=O)(=O)c5cccc(Cl)c5Cl)c4F)ncnc3s2)CC1 [Example 113]	10 to 50 nM	1 to 10 nM	–	–	< 500 nM
CC(C)(O)[C@@H]1CCN(C(=O)c2cn(-c3nc4c(Nc5c(F)ccc(NS(=O)(=O)c6cccc(Cl)c6Cl)c5F)ncnc4s3)c3ccccc23)C1 [Example 90]	< 10 nM	1 to 10 nM	< 500 nM	−6%	–
Cc1c(F)cccc1S(=O)(=O)Nc1ccc(F)c(Nc2ncnc3sc(-n4nc(C(=O)N(C)CCc5ccccn5)c5ccccc54)nc23)c1F [Example 25]	> 50 nM	> 10 nM	1000 to 10000 nM	2%	–
Cc1c(Cl)cccc1S(=O)(=O)Nc1ccc(F)c(Nc2ncnc3sc(-n4cnc5ccccc54)nc23)c1F [Example 6]	< 10 nM	1 to 10 nM	500 to 1000 nM	−4%	–
CC(C)(O)[C@@H]1CCCN1C(=O)c1cn(-c2nc3c(Nc4c(F)ccc(NS(=O)(=O)c5cccc(Cl)c5Cl)c4F)ncnc3s2)c2ccccc12 [Example 77]	10 to 50 nM	1 to 10 nM	500 to 1000 nM	−5%	–

SMILES	IC50 (CRAF)	IC50 (BRAF)	IC50 (pERK, HCT116 cells)	HCT116 pERK (Ymin %) (pERK, HCT116 cells)	IC50 (pERK, HCT116 cells; Homo sapiens, HCT-116)
Cc1c(Cl)cccc1S(=O)(=O)Nc1ccc(F)c(Nc2ncnc3sc(-n4cnc5c(F)cccc54)nc23)c1F [Example 36]	10 to 50 nM	1 to 10 nM	1000 to 10000 nM	−13%	–
O=S(=O)(Nc1ccc(F)c(Nc2ncnc3sc(-n4cnc5c(N6CCC(O)CC6)cccc54)nc23)c1F)c1cccc(Cl)c1Cl [Example 144]	< 10 nM	1 to 10 nM	< 500 nM	−4%	–
O=S(=O)(Nc1ccc(F)c(Nc2ncnc3sc(-n4cnc5c(N6CC7CC6CO7)cccc54)nc23)c1F)c1cccc(Cl)c1Cl (stereo not shown) [Example 127]	10 to 50 nM	1 to 10 nM	< 500 nM	1%	–
C[C@]1(CO)CCCN1C(=O)c1cn(-c2nc3c(Nc4c(F)ccc(NS(=O)(=O)c5cccc(Cl)c5Cl)c4F)ncnc3s2)c2ccccc12 [Example 78]	10 to 50 nM	1 to 10 nM	500 to 1000 nM	−14%	–
O=C(c1cn(-c2nc3c(Nc4c(F)ccc(NS(=O)(=O)c5cccc(Cl)c5Cl)c4F)ncnc3s2)c2ccccc12)N1CCC2CCCCC2(O)C1 (stereo not shown) [Example 89]	> 50 nM	1 to 10 nM	< 500 nM	−16%	–
O=C(c1cn(-c2nc3c(Nc4c(F)ccc(NS(=O)(=O)c5cccc(Cl)c5Cl)c4F)ncnc3s2)c2ccc(F)cc12)N1C2CCC1COC2 [Example 102]	< 10 nM	1 to 10 nM	< 500 nM	0%	–
O=C(c1cn(-c2nc3c(Nc4c(F)ccc(NS(=O)(=O)c5cccc(Cl)c5Cl)c4F)ncnc3s2)c2ccccc12)N1CCCC(O)C1 (stereo not shown) [Example 55]	< 10 nM	< 1 nM	500 to 1000 nM	−3%	–
CCN(CCOC)S(=O)(=O)c1cn(-c2nc3c(Nc4c(F)ccc(NS(=O)(=O)c5cccc(Cl)c5Cl)c4F)ncnc3s2)c2ccccc12 [Example 70]	10 to 50 nM	> 10 nM	–	–	500 to 1000 nM
O=S(=O)(Nc1ccc(F)c(Nc2ncnc3sc(-n4cnc5c(N6CCC(F)(CO)CC6)cccc54)nc23)c1F)c1cccc(Cl)c1Cl [Example 142]	10 to 50 nM	1 to 10 nM	< 500 nM	0%	–
O=S1(=O)CCN(c2cccc3c2ncn3-c2nc3c(Nc4c(F)ccc(NS(=O)(=O)c5cccc(Cl)c5Cl)c4F)ncnc3s2)CC1 [Example 158]	< 10 nM	< 1 nM	< 500 nM	4%	–
COC1(C)CCN(c2cccc3c2ncn3-c2nc3c(Nc4c(F)ccc(NS(=O)(=O)c5cccc(Cl)c5Cl)c4F)ncnc3s2)CC1 [Example 135]	> 50 nM	1 to 10 nM	< 500 nM	−5%	–
O=S(=O)(Nc1ccc(F)c(Nc2ncnc3sc(-n4cnc(-c5ccccc5)c4)nc23)c1F)c1cccc(Cl)c1Cl [Example 109]	> 50 nM	> 10 nM	500 to 1000 nM	−13%	–
Cc1ncn(-c2nc3c(Nc4c(F)ccc(NS(=O)(=O)c5cccc(Cl)c5Cl)c4F)ncnc3s2)c1C [Example 103]	< 10 nM	1 to 10 nM	500 to 1000 nM	−7%	–
COc1ccc(S(=O)(=O)Nc2ccc(F)c(Nc3ncnc4sc(-n5cnc6ccccc65)nc34)c2F)c(C)c1F [Example 16]	10 to 50 nM	1 to 10 nM	500 to 1000 nM	−8%	–
Cc1c(F)cccc1S(=O)(=O)Nc1ccc(F)c(Nc2ncnc3sc(-n4nc(C(=O)N5C6CCC5CN(C)C6)c5ccccc54)nc23)c1F [Example 42]	10 to 50 nM	> 10 nM	500 to 1000 nM	2%	–
